From patent US20210353624A1, “METHOD OF TREATING CANCER WITH TELOTRISAT OR A PRODRUG THEREOF” (TerSera Therapeutics LLC, priority 2020, published 2021)

What was measured:
colon cancer (HT-29) = assay: Cell confluence of tumor cell line grown with telotristat ethyl; format: cell-based; details: HT-29 cells; 0, 5, 15 and 30 μM telotristat ethyl; 24 to 96 hours; impact ranked between 94T778 and TFK-1
Procedure: (§1) This example provides experiments assessing the effects of telotristat ethyl on three aggressive cancer cell lines—liposarcoma (94T778), colon cancer (HT-29), and cholangiocarcinoma (TFK-1)—and three “normal” cell lines—fallopian tube epithelium (FT240), ovarian surface epithelium (OSE22), and first trimester placental fibroblasts (FTP).
(§2) The cells were grown with 0, 5, 15 and 30 μM telotristat ethyl, plated into four-chambered slides with an initial confluence of at least 30%, and cultured for 24 to 96 hours. At the end of each 24-hour period, cell density was measured with hematoxylin, and the presence of 5-HT was assessed by immunohistochemistry. Experiments were performed in triplicate. Cell confluence was determined, and the 5-HT expression was recorded as an H-score.

liposarcoma (94T778) = assay: as above; format: cell-based; details: 94T778 cells; 0, 5, 15 and 30 μM telotristat ethyl; 24 to 96 hours; confluence decreased progressively with concentration
Procedure: as §1, §2

5-HT = assay: Biomarker changes after TE initiation (TELEACE): 5-HT; format: in vivo, human; details: n=22
Procedure: This example provides the effects of telotristat ethyl treatment on selected patient biomarkers (i.e., u5-HIAA; CgA; 5-HT; and NT-proBNP) in the retrospective, single arm study of Example 4.
The average (SD) duration of documented TE treatment was 12.0 (7.3) months with a median (IQR) of 9.0 (6.8, 15.2) months. In many cases, a patient received a TE dosage of 250 mg three times per day.
The continuous measures of biomarker values pre- and post-TE initiation were described using mean, SD, median, and IQR. The biomarkers were assessed only among patients with complete biomarker assessment results in both pre-TE and post-TE initiation periods. A Wilcoxon signed rank test was used to calculate P-values for the mean change in biomarker value.
Patients with reported biomarker values below, at, or above normal range in pre-TE and post-TE initiation periods were described using proportions and frequencies. The biomarkers were assessed only among patients with complete biomarker assessment results in both pre-TE and post-TE initiation periods. McNemar's test was used to calculate P-values for the differences in paired proportions of patients with values above the upper limit of normal.
To evaluate the relationship between the change in biomarker values (i.e., u5-HIAA; CgA; 5-HT) and the change in tumor progression between the pre- and post-TE periods, Pearson's correlation coefficient was used to assess the correlation between biomarker assessments and tumor sizes and to derive the associated P-values. The correlations were assessed only among patients with complete biomarker assessment results in both pre-TE and post-TE initiation periods. The relationship between biomarker values and tumor sizes during pre-TE and post-TE initiation period was presented using scatterplots.
For the biomarker results below, the pre-TE initiation period is defined as 12 months before the index date (initiation of TE). The assessment closest to the index date during the pre-TE period was reported for each biomarker.
The post-TE initiation period is defined as a period from index date to the earlier of end of treatment with TE or date of chart abstraction. The assessment closest to the date of chart abstraction during the post-TE period was reported for each biomarker.
The data includes patients with reported biomarker values, units, and laboratory ranges during pre- and post-TE initiation periods. It excludes patients who had different biomarker units or laboratory ranges reported pre- and post-TE initiation.
The normal range was defined by reported laboratory lower limit of normal and upper limit of normal.
The Wilcoxon signed rank test was used to calculate P-values for the mean change in biomarker values pre- and post-TE initiation.
Table 5-4 is based on patients who had complete biomarker assessment results (u5-HIAA: N=22; 5-HT: N=22) in both pre-TE and post-TE initiation periods. Correlation analysis was not conducted for CgA and NT-proBNP due to small sample sizes for CgA (n=15) and NT-proBNP (n=2). Pearson's correlation coefficient was used to assess the correlation between biomarker assessments and tumor sizes and to derive the associated P-values. Values have been converted to mg/24 hours based on the following conversion rate: […].

[1] = Changes in carcinoid syndrome symptoms, body weight and ECOG Performance Status after TE initiation (TELEACE); format: in vivo, human
Excerpt: Time to tumor progression was defined as the time from telotristat ethyl initiation to the first documented tumor progression in the medical chart. […] Progression-free survival (PFS) was defined as the time from telotristat ethyl initiation to tumor progression or death. […] Physician-assessed changes in body weight, Eastern Cooperative Oncology Group (ECOG) Performance Status, and CS symptoms including diarrhea, flushing, abdominal pain, nausea and ascites were abstracted from medical charts before and after telotristat ethyl initiation. In order to evaluate the effect of telotristat ethyl treatment on secondary clinical outcomes, analyses were conducted in the overall population and in a subgroup of patients who had the same documented non-telotristat ethyl neuroendocrine tumor treatment before and after telotristat ethyl initiation. Descriptive statistics summarized patient demographic and clinical characteristics, and changes in body weight and ECOG Performance Status after telotristat ethyl treatment initiation. Kaplan-Meier analyses estimated median time to tumor progression and median PFS. Chi-square test evaluated changes in documented CS symptoms (improved vs same/worsened) before and after telotristat ethyl initiation. All analyses were performed using SAS version 9.4 (SAS Institute, Cary, N.C., USA). To evaluate the change in CS symptoms, weight, and ECOG performance status between the pre- and post-TE periods, patients with documented CS symptoms (i.e., abdominal pain, ascites, diarrhea, flushing, nausea) pre-TE initiation were described using proportions and frequencies. The change in documented CS symptoms, weight, and ECOG performance status after TE Initiation (i.e., improved/increased, stayed the same/remained unchanged, worsened/decreased) were also described using proportions and frequencies. P-values were calculated using Chi-square test for equal proportions for change in CS symptoms (i.e., proportion of patients with improved vs. stayed the same/worsened CS symptoms).

CCOC(=O)[C@@H](N)Cc1ccc(-c2cc(O[C@H](c3ccc(Cl)cc3-n3ccc(C)n3)C(F)(F)F)nc(N)n2)cc1 [telotristat ethyl, (S)-ethyl 2-amino-3-(4-(2-amino-6-((R)-1-(4-chloro-2-(3-methyl-1H-pyrazol-1-yl)phenyl)-2,2,2-trifluoroethoxy)pyrimidin-4-yl)phenyl)propanoate]
cell confluence (colon cancer (HT-29)): between these two
cell confluence (liposarcoma (94T778)): most impacted
5-HT Measurement (ng/24 hours) Post-TE Initiation, Median (IQR) (5-HT; IQR 320.0, 700.0, pre-TE 459.5 (389.0, 701.0)): 399.5 ng/24 hours
5-HT Below normal range Post-TE, n (%) (5-HT; pre-TE 0 (0)): 0 (0) n (%)
5-HT At normal range Post-TE, n (%) (5-HT; pre-TE 1 (4.5)): 2 (9.1) n (%)
5-HT Above normal range Post-TE, n (%) (5-HT; pre-TE 21 (95.5), P=0.317): 20 (90.9) n (%)
5-HT Measurement (ng/24 hours) Post-TE Initiation, Mean ± SD (5-HT; pre-TE 648.9 ± 448.1, P=0.026): 533.5 ± 329.2 ng/24 hours
Body weight and ECOG Performance Status after telotristat ethyl ([1]; overall population and same NET treatment subgroup): improved or unchanged for most patients
patients with improvement in nausea after TE initiation ([1]; overall population, n=41): 78%
patients with improvement in abdominal pain after TE initiation ([1]; overall population, n=69): 81%
patients with improvement in flushing after TE initiation ([1]; overall population, n=88): 81%
patients with improvement in diarrhea after TE initiation ([1]; overall population, n=133): 85%
